Results reported in ChEMBL document CHEMBL1156829 (Proc Natl Acad Sci U S A, 2008).

Assays:
Plasmodium falciparum [1] = assay: NOVARTIS: Inhibition of Plasmodium falciparum W2 (drug-resistant) proliferation in erythrocyte-based infection assay; type: functional, organism-based; conditions: Plasmodium falciparum, W2; read-out: EC50
[2] = NOVARTIS: Cytotoxicity against human hepatocellular carcinoma cell line (Huh7); type: toxicity, cell-based, Huh-7; conditions: Huh7 cells (hepatocellular carcinoma cell line)
Plasmodium falciparum [3] = assay: NOVARTIS: Inhibition of Plasmodium falciparum 3D7 (drug-susceptible) proliferation in erythrocyte-based infection assay; type: functional, organism-based; conditions: Plasmodium falciparum, 3D7

| Structure (SMILES) | EC50 (Plasmodium falciparum [1]) [nM] | CC50 [2] [nM] | EC50 (Plasmodium falciparum [3]) [nM] |
| --- | --- | --- | --- |
| COc1ccc(/C=C2/SC(=Nc3ccccc3OC)NC2=O)cc1 | 38.4 | 19800 | 83.6 |
| COc1cc(Nc2cncc(-c3ccc(C(N)=O)cc3)n2)cc(OC)c1OC | 50.1 | 25300 | 29.5 |
| CCC(CO)NCC(O)Cn1c2ccc(Cl)cc2c2cc(Cl)ccc21 (configuration not stated) | 40.6 | 20100 | 368 |
| C[n+]1ccc(C=Cc2ccc(Br)cc2)cc1 | 205 | > 100000 | 638 |
| CCc1c(C#N)c(N)nc(SCC(=O)c2ccc(C)cc2C)c1C#N | 196 | > 100000 | 308 |
| NC1=NC(c2ccccc2)N(c2ccccc2)C(N)=N1 (configuration not stated) | 204 | > 100000 | 82.3 |
| CN(C)CCCNc1ncnc2c1[nH]c1ccc(Cl)cc12 | 43.7 | 20700 | 26.1 |
| OC(CNC1CCCCC1)Cn1c2ccc(Cl)cc2c2cc(Cl)ccc21 (configuration not stated) | 116 | 57300 | 333 |
| Cc1ccc(-c2c[n+](Cc3ccc(Cl)cc3)c3n2CCC3)cc1 | 153 | > 75700 | 373 |
| CC(=O)NCCc1nc2ccccc2n1Cc1ccc(C(C)C)cc1 | 98.1 | 48700 | 764 |
| O=C(Nc1c(C(=O)Nc2cccc(Cl)c2)oc2ccccc12)c1cc(-c2ccccc2O)n[nH]1 | 74.2 | 35100 | 272 |
| CC(=NNC(=O)c1ccc(C)cc1)c1ccccn1 | 209 | > 100000 | 350 |
| c1ccc(CCc2nc3cccnc3n2C2CCN(C3CCN(Cc4ccccc4)CC3)CC2)cc1 | 175 | 81400 | 153 |
| COc1ccc(-c2c[n+](CC(=O)c3ccc(C)cc3)c3n2CCC3)cc1 | 200 | > 100000 | 745 |
| Cc1ccc(-n2c(SCc3ccc(F)cc3)nnc2C(Cc2ccccc2)NC(=O)NC(C)(C)C)cc1 (configuration not stated) | 125 | > 62300 | 330 |
| CCn1c2ccccc2[n+]2c(C)cc(C)nc12 | 199 | > 100000 | 266 |
| CCCOC(=O)C1=C(C)NC2=C(C(=O)CC(c3ccc(Cl)cc3)C2)C1c1ccc(Br)cc1 (configuration not stated) | 198 | > 100000 | 498 |

| Structure (SMILES) | EC50 (Plasmodium falciparum [1]) [nM] | CC50 [2] [nM] | EC50 (Plasmodium falciparum [3]) [nM] |
| --- | --- | --- | --- |
| CSCCC(C(=O)NCC(=O)O)N1C(=O)c2cc(NC(C)=O)ccc2NC(=O)[C@@H]1c1ccccc1 (some centres not stated) | 15.3 | > 7760 | > 1250 |
| CCCCCC(=O)Oc1ccccc1-c1nc2ccccn2c1NC(C)(C)CC(C)(C)C | 19.5 | > 10000 | 701 |
| CCCCN(CC)CCNC(=O)C1c2ccccc2C(=O)N(Cc2ccc(F)cc2)C1c1ccc(OC)cc1 (configuration not stated) | 195 | > 100000 | 2270 |
| O=c1c(-c2ccc(Cl)cc2Cl)c(C(F)(F)F)oc2c(CN3CCCCC3)c(O)ccc12 | 198 | > 100000 | 994 |
| COCCNC(=O)CN1C(=O)CC(C)(C)Sc2ccccc21 | > 19.8 | > 10000 | > 1250 |
| Oc1ccc(-c2cccnc2)cc1CNC1C2CC3CC(C2)CC1C3 (configuration not stated) | 195 | > 100000 | 459 |
| O=C(COc1ccc(Cl)cc1)Nc1nnc(-c2ccc3c(c2)OCO3)s1 | 26.7 | > 13800 | > 1250 |
| CCOc1ccc(Nc2cc(C)nc3ccc(OCC)cc23)cc1 | 20.3 | > 10000 | > 1250 |
| Cc1ccnc(NC(c2ccc(Cl)cc2Cl)c2ccc3cccnc3c2O)c1 (configuration not stated) | 120 | 60100 | 296 |
| CCOC(=O)c1cnc2ccc(OCC)cc2c1NCCCN(CC)CC | 140 | 70100 | 117 |
| CCOC(=O)C1(Cc2ccc(OC)cc2)CCN(C(=O)c2scc3c2OCCO3)CC1 | 199 | > 100000 | 264 |
| COc1ccc(OC)c(-c2ccc(O)c(CNCC3CC4C=CC3C43CC3)c2)c1 (configuration not stated) | 39.8 | 20600 | 350 |
| CCc1nn(-c2ccccc2)c2nc(-c3cc(Br)ccc3O)c3cc(OC)c(OC)cc3c12 | 192 | > 100000 | 466 |
| O=c1c2ccccc2[nH]c2ccc(F)cc12 | 208 | > 100000 | 186 |
| CCC(=O)NC(c1ccccc1Cl)c1cc(Cl)c2cccnc2c1O (configuration not stated) | 73.6 | 35400 | 232 |
| Cc1cc(N2CCN(C3CCCCC3)CC2)n2c(nc3ccccc32)c1C#N | 203 | > 100000 | 63.5 |
| CN(CCCNc1ccnc2cc(Cl)ccc12)C(=O)CSc1ccccc1 | 20.3 | > 10000 | 7.17 |
